Structures can show the parent of a compound that is named as a salt.
Target: PARP-1 (poly[ADP-ribose] polymerase 1) enzyme (Homo sapiens (Human), UniProt P09874)
Assay: PARP-1 (poly[ADP-ribose] polymerase 1) enzyme inhibitory ability, Trevigen assay kit
Format: biochemical
Details: for inhibition at 0.001 µM: 1 nM compound, read-out: PAR P-1 Inhibitory ability at 1 nM; for IC50: PARP-1 enzyme activity
Outline: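 After the 1 hour PARP reaction, wells were washed with PBS containing 0.1% triton X-100 and then PBS. Strep-HRP (50 μL) was bound for 1 hour, wells washed again, and 50 μL of TACS-sapphire substrate developed 15 minutes in the dark. Reactions were stopped with 50 μL of 5% phosphoric acid and absorbance read at 450 nm on a Victor3 reader.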

PARP-1 (poly[ADP-ribose] polymerase 1) enzyme, sequence (P09874 whole entry): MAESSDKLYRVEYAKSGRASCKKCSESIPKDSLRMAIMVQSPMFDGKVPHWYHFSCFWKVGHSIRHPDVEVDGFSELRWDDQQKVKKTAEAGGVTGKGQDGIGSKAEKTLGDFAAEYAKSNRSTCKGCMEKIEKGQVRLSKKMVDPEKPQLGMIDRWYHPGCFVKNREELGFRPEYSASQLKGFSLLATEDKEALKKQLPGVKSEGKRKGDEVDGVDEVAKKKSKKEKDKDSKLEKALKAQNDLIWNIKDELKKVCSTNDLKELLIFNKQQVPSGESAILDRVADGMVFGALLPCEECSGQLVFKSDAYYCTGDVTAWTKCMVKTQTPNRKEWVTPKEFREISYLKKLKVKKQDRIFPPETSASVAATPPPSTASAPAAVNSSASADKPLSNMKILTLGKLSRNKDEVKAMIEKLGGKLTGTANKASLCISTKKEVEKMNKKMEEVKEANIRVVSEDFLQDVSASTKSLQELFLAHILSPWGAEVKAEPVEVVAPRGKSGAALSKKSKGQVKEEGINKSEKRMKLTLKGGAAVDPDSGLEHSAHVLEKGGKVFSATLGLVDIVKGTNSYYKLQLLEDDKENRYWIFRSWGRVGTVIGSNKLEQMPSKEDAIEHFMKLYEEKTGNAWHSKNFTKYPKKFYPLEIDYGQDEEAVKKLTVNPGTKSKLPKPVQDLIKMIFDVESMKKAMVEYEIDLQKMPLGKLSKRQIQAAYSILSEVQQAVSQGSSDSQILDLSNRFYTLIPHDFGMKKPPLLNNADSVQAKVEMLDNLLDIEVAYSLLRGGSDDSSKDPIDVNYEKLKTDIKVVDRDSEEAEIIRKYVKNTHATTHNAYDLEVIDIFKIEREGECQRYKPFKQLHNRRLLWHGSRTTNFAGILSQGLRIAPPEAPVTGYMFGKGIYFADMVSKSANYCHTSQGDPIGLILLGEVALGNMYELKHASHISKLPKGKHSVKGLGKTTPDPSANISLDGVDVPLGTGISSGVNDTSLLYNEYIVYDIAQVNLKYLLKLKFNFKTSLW

| SMILES | inhibition at 0.001 µM [%] | IC50 [nM] |
| --- | --- | --- |
| Cc1ccc(F)c2c(=O)[nH]c(CCC(=O)N3C4CCC3CN(c3ccc(Cl)cc3)C4)cc12 [Example 210, 3-(3-(3-(4-chlorophenyl)-3,8-diazabicyclo[3.2.1]octan-8-yl)-3-oxopropyl)-8-fluoro-5-methylisoquinolin-1(2H)-one] | < 50 |  |
| Cc1cc(F)cc2c(=O)[nH]c(CCC(=O)N3C4CCC3CN(c3ccc(F)cn3)C4)cc12 [Example 219, 7-fluoro-3-(3-(3-(5-fluoropyridin-2-yl)-3,8-diazabicyclo[3.2.1]octan-8-yl)-3-oxopropyl)-5-methylisoquinolin-1(2H)-one] | < 50 |  |
| Cc1cc(F)cc2c(=O)[nH]c(CCC(=O)N3C4CCC3CN(c3ccc(Cl)cc3)C4)cc12 [Example 216, 3-(3-(3-(4-chlorophenyl)-3,8-diazabicyclo[3.2.1]octan-8-yl)-3-oxopropyl)-7-fluoro-5-methylisoquinolin-1(2H)-one] | < 50 |  |
| Cc1ccc(F)c2c(=O)[nH]c(CCCN3CC=C(c4ccc(C#N)cc4)CC3)cc12 [Example 54, 4-(1-(3-(8-fluoro-5-methyl-1-oxo-1,2-dihydroisoquinolin-3-yl)propyl)-1,2,3,6-tetrahydropyridin-4-yl)benzonitrile] | < 50 | 1.42 |
| O=c1[nH]c(CCCN2C3CCC2CC(O)C3)cc2ncccc12 (stereo not shown) [Example 271, 7-(3-(3-hydroxy-8-azabicyclo[3.2.1]octan-8-yl)propyl)-1,6-naphthyridin-5(6H)-one] | < 50 |  |
| O=c1[nH]c(CCCN2CC=C(c3ccncc3)CC2)cc2ncccc12 [Example 240, 7-(3-(3,6-dihydro-[4,4′-bipyridine]-1(2H)-yl)propyl)-1,6-naphthyridin-5(6H)-one] | < 50 |  |
| N#Cc1ccc(C2=CCN(CCCc3cc4cccc(F)c4c(=O)[nH]3)CC2)cc1 [Example 41, 4-(1-(3-(8-fluoro-1-oxo-1,2-dihydroisoquinolin-3-yl)propyl)-1,2,3,6-tetrahydropyridin-4-yl)benzonitrile] | 50 to 80 |  |
| O=c1[nH]c(CCCN2CCN(c3ccc(C(F)(F)F)cc3)CC2)cc2cccc(F)c12 [Example 4, 8-fluoro-3-(3-(4-(4-(trifluoromethyl)phenyl)piperazin-1-yl)propyl)isoquinolin-1(2H)-one] | < 50 |  |
| Cc1ccc(F)c2c(=O)[nH]c(CCCN3C4CCC3CN(c3ccc(F)cc3)C4)cc12 [Example 198, 8-fluoro-3-(3-(3-(4-fluorophenyl)-3,8-diazabicyclo[3.2.1]octan-8-yl)propyl)-5-methylisoquinolin-1(2H)-one] | < 50 |  |
| Cc1ccc(F)c2c(=O)[nH]c(CCCN3CCN(c4ccc(C#N)cc4)CC3)cc12 [Example 23, 4-(4-(3-(8-fluoro-5-methyl-1-oxo-1,2-dihydroisoquinolin-3-yl)propyl)piperazin-1-yl)benzonitrile] | < 50 | 0.76 |
| O=c1[nH]c(CCCN2CC=C(c3ccc(F)cc3)CC2)cc2ncccc12 [Example 236, 7-(3-(4-(4-fluorophenyl)-3,6-dihydropyridin-1(2H)-yl)propyl)-1,6-naphthyridin-5(6H)-one] | < 50 |  |
| N#Cc1ccc(N2CC3CCC(C2)N3CCCc2cc3ncccc3c(=O)[nH]2)cn1 [Example 229, 5-(8-(3-(5-oxo-5,6-dihydro-1,6-naphthyridin-7-yl)propyl)-3,8-diazabicyclo[3.2.1]octan-3-yl)picolinonitrile] | < 50 |  |
| Cc1ccc(F)c2c(=O)[nH]c(CCC(=O)N3C4CCC3CN(c3ccc(C#N)cc3)C4)cc12 [Example 148, 4-(8-(3-(8-fluoro-5-methyl-1-oxo-1,2-dihydroisoquinolin-3-yl)propanoyl)-3,8-diazabicyclo[3.2.1]octan-3-yl)benzonitrile] | < 50 |  |
| Cc1ccc(F)c2c(=O)[nH]c(CCCN3C4CCC3CN(c3ccc(Cl)cc3)C4)cc12 [Example 201, 3-(3-(3-(4-chlorophenyl)-3,8-diazabicyclo[3.2.1]octan-8-yl)propyl)-8-fluoro-5-methylisoquinolin-1(2H)-one] | < 50 |  |
| N#Cc1ccc(N2CC3CCC(C2)N3CCCc2cc3ncccc3c(=O)[nH]2)cc1 [Example 225, 4-(8-(3-(5-oxo-5,6-dihydro-1,6-naphthyridin-7-yl)propyl)-3,8-diazabicyclo[3.2.1]octan-3-yl)benzonitrile] | > 80 |  |
| Cc1ccc(F)c2c(=O)[nH]c(CCCN3CCN(c4ccccc4C#N)CC3)cc12 [Example 28, 2-(4-(3-(8-fluoro-5-methyl-1-oxo-1,2-dihydroisoquinolin-3-yl)propyl)piperazin-1-yl)benzonitrile] | < 50 |  |

The next lines start with results.

| inhibition at 0.001 µM [%] | SMILES | IC50 [nM] |
| --- | --- | --- |
| < 50 | CC(C)C(=O)N1CCN(C(=O)CCc2cc3ccc(F)cc3c(=O)[nH]2)CC1 [Example 188, 7-fluoro-3-(3-(4-isobutyrylpiperazin-1-yl)-3-oxopropyl)isoquinolin-1(2H)-one] |  |
| < 50 | Cc1cc(F)cc2c(=O)[nH]c(CCC(=O)N3CCN(c4ccc(C#N)cc4)CC3)cc12 [Example 149, 4-(4-(3-(7-fluoro-5-methyl-1-oxo-1,2-dihydroisoquinolin-3-yl)propanoyl)piperazin-1-yl)benzonitrile] |  |
| < 50 | O=C(CCc1cc2cccc(F)c2c(=O)[nH]1)N1CCN(c2ccc(F)cc2F)CC1 [Example 78, 3-(3-(4-(2,4-difluorophenyl)piperazin-1-yl)-3-oxopropyl)-8-fluoroisoquinolin-1(2H)-one] |  |
| 50 to 80 | Cc1cc(F)cc2c(=O)[nH]c(CCCN3CCN(c4ccc(F)cc4)CC3)cc12 [Example 40, 7-fluoro-3-(3-(4-(4-fluorophenyl)piperazin-1-yl)propyl)-5-methylisoquinolin-1(2H)-one] |  |
| < 50 | N#Cc1ccc(F)cc1N1CCN(C(=O)CCc2cc3cccc(F)c3c(=O)[nH]2)CC1 [Example 81, 4-fluoro-2-(4-(3-(8-fluoro-1-oxo-1,2-dihydroisoquinolin-3-yl)propanoyl)piperazin-1-yl)benzonitrile] |  |
| < 50 | N#Cc1ccc(C2=CCN(C(=O)CCc3cc4cccc(F)c4c(=O)[nH]3)CC2)cc1 [Example 69, 4-(1-(3-(8-fluoro-1-oxo-1,2-dihydroisoquinolin-3-yl)propanoyl)-1,2,3,6-tetrahydropyridin-4-yl)benzonitrile] |  |
| < 50 | N#Cc1ccc(N2CCN(CCCc3cc4ncccc4c(=O)[nH]3)CC2)nc1 [Example 222, 6-(4-(3-(5-oxo-5,6-dihydro-1,6-naphthyridin-7-yl)propyl)piperazin-1-yl)nicotinonitrile] |  |
| < 50 | N#Cc1ccc(F)c(C2=CCN(C(=O)CCc3cc4ccc(F)cc4c(=O)[nH]3)CC2)c1 [Example 111, 4-fluoro-3-(1-(3-(7-fluoro-1-oxo-1,2-dihydroisoquinolin-3-yl)propanoyl)-1,2,3,6-tetrahydropyridin-4-yl)benzonitrile] |  |
| < 50 | Cc1cc(F)cc2c(=O)[nH]c(CCC(=O)N3CCN(c4cc(C#N)ccc4F)CC3)cc12 [Example 156, 4-fluoro-3-(4-(3-(7-fluoro-5-methyl-1-oxo-1,2-dihydroisoquinolin-3-yl)propanoyl)piperazin-1-yl)benzonitrile] |  |
| < 50 | O=C(CCc1cc2ccc(F)cc2c(=O)[nH]1)N1CCN(c2ccc(C(F)(F)F)cc2)CC1 [Example 118, 7-fluoro-3-(3-oxo-3-(4-(4-(trifluoromethyl)phenyl)piperazin-1-yl)propyl)isoquinolin-1(2H)-one] |  |
| < 50 | N#Cc1cc(N2CCN(C(=O)CCc3cc4cccc(F)c4c(=O)[nH]3)CC2)ccc1F [Example 80, 2-fluoro-5-(4-(3-(8-fluoro-1-oxo-1,2-dihydroisoquinolin-3-yl)propanoyl)piperazin-1-yl)benzonitrile] |  |
| < 50 | Cc1ccc(F)c2c(=O)[nH]c(CCC(=O)N3CCN(C(=O)C4CCCN4)CC3)cc12 (stereo not shown) [Example 196, hydrochloride] |  |
| < 50 | Cc1ccc(F)c2c(=O)[nH]c(CCC(=O)N3CCN(c4ccc(C#N)cc4)CC3)cc12 [Example 122, 4-(4-(3-(8-fluoro-5-methyl-1-oxo-1,2-dihydroisoquinolin-3-yl)propanoyl)piperazin-1-yl)benzonitrile] |  |
| < 50 | Cc1cc(F)cc2c(=O)[nH]c(CCC(=O)N3CCC(Nc4ccc(C#N)cc4)CC3)cc12 [Example 260, 4-((1-(3-(7-fluoro-5-methyl-1-oxo-1,2-dihydroisoquinolin-3-yl)propanoyl)piperidin-4-yl)amino)benzonitrile] |  |
| < 50 | Cc1cc(F)cc2c(=O)[nH]c(CCC(=O)N3CCN(C(=O)C(C)C)CC3)cc12 [Example 189, 7-fluoro-3-(3-(4-isobutyrylpiperazin-1-yl)-3-oxopropyl)-5-methylisoquinolin-1(2H)-one] |  |
| < 50 | O=C(CCc1cc2cccc(F)c2c(=O)[nH]1)N1CCN(c2cccc(F)c2)CC1 [Example 89, 8-fluoro-3-(3-(4-(3-fluorophenyl)piperazin-1-yl)-3-oxopropyl)isoquinolin-1(2H)-one] |  |
| < 50 | Cc1ccc(F)c2c(=O)[nH]c(CCC(=O)N3CC=C(c4ccnc(F)c4)CC3)cc12 [Example 144, 8-fluoro-3-(3-(2′-fluoro-3,6-dihydro-[4,4′-bipyridine]-1(2H)-yl)-3-oxopropyl)-5-methylisoquinolin-1(2H)-one] |  |
| < 50 | Cc1cc(F)cc2c(=O)[nH]c(CCC(=O)N3CCC(Oc4ccc(C#N)cc4)CC3)cc12 [Example 262, 4-((1-(3-(7-fluoro-5-methyl-1-oxo-1,2-dihydroisoquinolin-3-yl)propanoyl)piperidin-4-yl)oxy)benzonitrile] |  |
| < 50 | O=C(CCc1cc2cccc(F)c2c(=O)[nH]1)N1CC=C(c2ccccc2F)CC1 [Example 82, 8-fluoro-3-(3-(4-(2-fluorophenyl)-3,6-dihydropyridin-1(2H)-yl)-3-oxopropyl)isoquinolin-1(2H)-one] |  |

— US12459899B2, “Isoquinolinone derivatives, method for preparing the same, and pharmaceutical composition for preventing or treating poly(ADP-ribose) polymerase-1-related diseases, comprising the same as active ingredient” (DIGMBIO. INC., priority 2019, dated 2025)
